Active and inactive are the calls of the source. The calls are words filed in the database; no cut-off is given here.
Tests used:
[1] = tested on: A549; assay: Induction of ROS generation in human A549 cells assessed as fold increase in ROS level at 9 uM after 24 hrs by DCFH-DA staining based flow cytometric analysis relative to control; type: functional
[2] = tested on: A549; assay: Inhibition of colony formation in human A549 cells incubated for 24 hrs by crystal violet staining based assay; type: functional, cell-based; conditions: dose 2-10 µM
[3] = AUC (0 to infinity) in rat at 0.5 mg/kg, iv; type: ADME, organism-based; set-up: route intravenous, time infinity, dose 0.5 mg/kg; conditions: in vivo
[4] = tested on: A549; assay: Induction of apoptosis in human A549 cells assessed as increase in cleaved caspase-3 level at 3 to 9 uM incubated for 24 hrs by Western blot analysis; type: functional, cell-based; conditions: dose 3-9 µM
[5] = tested on: A549; assay: Induction of apoptosis in human A549 cells assessed as necrotic cells at 6 uM incubated for 24 hrs by annexin V-FITC and propidium iodide staining based flow cytometry analysis (reference value: 0.4 %); type: functional
[6] = tested on: A549; assay: Induction of apoptosis in human A549 cells assessed as late apoptotic cells at 3 uM incubated for 24 hrs by annexin V-FITC and propidium iodide staining based flow cytometry analysis (reference value: 1.4 %); type: functional
[7] = Clearance in rat at 0.5 mg/kg, iv; type: ADME, organism-based; conditions: in vivo
[8] = Mean residence time in rat at 0.5 mg/kg, iv; type: ADME, organism-based; conditions: in vivo
[9] = Acute toxicity in ICR mouse assessed as abnormal behaviour at 120 mg/kg measured after 2 weeks; type: organism-based; conditions: in vivo, 336 h
[10] = tested on: A549; assay: Antiproliferative activity against human A549 cells assessed as cell growth inhibition measured after 24 hrs by MTT assay; type: functional, cell-based; conditions: A549, 24 h
[11] = Mean residence time in rat at 5 mg/kg, ig; type: ADME, organism-based; conditions: in vivo, po
[12] = tested on: A549; assay: Antitumor activity against human A549 cells xenografted in nude mouse assessed as decrease in tumor weight at 20 mg/kg, ip administered daily for 21 days and measured every 2 to 3 days; type: functional; conditions: 504 h, time 21 day
[13] = target: T1, Interleukin-6 receptor subunit beta (Homo sapiens) (UniProt P40189); assay: Inhibition of GP130 in human A549 cells assessed as decrease in JAK2 phosphorylation at 3 to 9 uM incubated for 24 hrs by western blot analysis; type: cell-based; conditions: dose 3-9 µM
T1 sequence (whole entry): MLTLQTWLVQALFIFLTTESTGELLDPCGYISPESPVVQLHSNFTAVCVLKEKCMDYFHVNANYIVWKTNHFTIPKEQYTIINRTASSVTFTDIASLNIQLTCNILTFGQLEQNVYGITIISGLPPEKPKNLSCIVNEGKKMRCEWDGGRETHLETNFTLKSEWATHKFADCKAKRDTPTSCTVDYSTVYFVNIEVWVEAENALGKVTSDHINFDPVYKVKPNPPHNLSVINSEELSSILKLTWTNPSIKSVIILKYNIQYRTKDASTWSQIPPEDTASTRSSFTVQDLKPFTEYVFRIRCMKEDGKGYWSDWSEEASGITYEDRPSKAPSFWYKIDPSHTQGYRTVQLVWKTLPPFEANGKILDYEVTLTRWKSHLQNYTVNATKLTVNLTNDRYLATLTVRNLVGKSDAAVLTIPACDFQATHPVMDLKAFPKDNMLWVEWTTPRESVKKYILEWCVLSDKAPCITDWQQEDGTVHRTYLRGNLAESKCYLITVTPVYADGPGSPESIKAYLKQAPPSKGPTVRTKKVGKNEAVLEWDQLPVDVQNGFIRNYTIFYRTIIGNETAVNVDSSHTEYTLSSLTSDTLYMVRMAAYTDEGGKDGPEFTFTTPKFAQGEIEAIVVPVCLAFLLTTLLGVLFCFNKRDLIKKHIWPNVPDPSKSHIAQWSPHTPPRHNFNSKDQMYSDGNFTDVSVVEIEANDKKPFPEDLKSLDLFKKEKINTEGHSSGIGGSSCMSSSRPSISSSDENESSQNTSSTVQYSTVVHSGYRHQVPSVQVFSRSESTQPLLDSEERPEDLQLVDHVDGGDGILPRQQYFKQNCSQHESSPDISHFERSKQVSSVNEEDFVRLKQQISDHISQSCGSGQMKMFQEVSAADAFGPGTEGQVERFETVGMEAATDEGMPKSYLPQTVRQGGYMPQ

[14] = tested on: A549; assay: Induction of ROS generation in human A549 cells assessed as fold increase in ROS level at 3 uM after 24 hrs by DCFH-DA staining based flow cytometric analysis relative to control; type: functional
[15] = tested on: Mus musculus; assay: Inhibition of phosphorylated STAT3 levels in tumor tissue of nude mouse xenografted with human A549 cells at 10 to 20 mg/kg, ip administered daily for 21 days by western blot analysis; type: functional, organism-based; conditions: dose 10-20 mg/kg, time 21.0 day
[16] = Volume of distribution in rat at 0.5 mg/kg, iv; type: ADME, organism-based; conditions: in vivo
[17] = tested on: A549; assay: Induction of apoptosis in human A549 cells assessed as early apoptotic cells at 3 uM incubated for 24 hrs by annexin V-FITC and propidium iodide staining based flow cytometry analysis (reference value: 0.5 %); type: functional
[18] = tested on: A549; assay: Antimigratory activity against human A549 cells assessed as reduction in cell migration measured after 24 hrs by scratch wound healing assay; type: functional, cell-based; conditions: dose 3-6 µM
[19] = target: T2, Interleukin-6 receptor subunit beta (Homo sapiens, UniProt P40189); assay: Binding affinity to immobilized GP130 (unknown origin) by SPR analysis
T2 sequence (P40189 whole entry): T1 sequence (whole entry)

[20] = Volume of distribution in rat at 5 mg/kg, ig; type: ADME, organism-based; conditions: in vivo, po
[21] = target: T1, Interleukin-6 receptor subunit beta (Homo sapiens); assay: Inhibition of GP130 in human A549 cells assessed as decrease in IL6-induced STAT3 phosphorylation at Y705 residue at 9 uM incubated for 24 hrs by western blot analysis; type: cell-based
[22] = Clearance in rat at 5 mg/kg, ig; type: ADME, organism-based; conditions: in vivo, po
[23] = Toxicity in nude mouse xenografted with human A549 cells assessed as effect on body weight at 10 to 20 mg/kg, ip administered daily for 21 days and measured every 2 or 3 days; type: organism-based; conditions: in vivo, 504 h, dose 10-20 mg/kg, time 21 day
[24] = tested on: A549; assay: Induction of apoptosis in human A549 cells assessed as early apoptotic cells at 6 uM incubated for 24 hrs by annexin V-FITC and propidium iodide staining based flow cytometry analysis (reference value: 0.5 %); type: functional
[25] = tested on: A549; assay: Potency index, ratio of bazedoxifene IC50 to test compound IC50 for antiproliferative activity against human A549 cells after 24 hrs by MTT assay; type: functional
[26] = target: T1, Interleukin-6 receptor subunit beta (Homo sapiens); assay: Inhibition of GP130 in human A549 cells assessed as decrease in STAT3 phosphorylation at Y705 residue at 3 to 9 uM incubated for 24 hrs by western blot analysis; type: cell-based; conditions: dose 3-9 µM
[27] = tested on: A549; assay: Induction of apoptosis in human A549 cells assessed as increase in cleaved PARP level at 3 to 9 uM incubated for 24 hrs by Western blot analysis; type: functional, cell-based; conditions: dose 3-9 µM
[28] = tested on: A549; assay: Induction of apoptosis in human A549 cells assessed as late apoptotic cells at 9 uM incubated for 24 hrs by annexin V-FITC and propidium iodide staining based flow cytometry analysis (reference value: 1.4 %); type: functional
[29] = AUC (0 to t) in rat at 5 mg/kg, ig; type: ADME, organism-based; set-up: dose 5 mg/kg; conditions: in vivo, po

NC(=O)N1N=C(c2ccc(C(F)(F)F)cc2)CC1c1cn(Cc2ccc(OCCN3CCCCCC3)cc2)c2ccc(Br)cc12 (centres undefined)
fold change (FC) [1]: 6.28
inhibition [2]: Dose-dependent effect
AUC(0-inf) [3]: 585 ng·h/mL
Activity [4]: Active
Activity [5]: 1.9%
Activity [6]: 2.5%
clearance [7]: 14.5 mL/min/kg
MRT [8]: 13.7 h
Activity [9]: Non-Toxic
IC50 [10]: 4.46 µM
MRT [11]: 11.6 h
inhibition in vivo at 20 mg/kg [12]: 59%
Activity [13]: Active
fold change (FC) [14]: 1.93
inhibition [15]: Active
Vd [16]: 14.6 L/kg
Activity [17]: 0.9%
Activity [18]: Dose-dependent effect
Kd [19]: 3.8 µM
Vd [20]: 12.6 L/kg
Activity [21]: Active
CL [22]: 14.8 mL/min/kg
Activity [23]: Non-Toxic
Activity [24]: 1.7%
Ratio IC50 [25]: 5.5
Activity [26]: Active
Activity [27]: Active
Activity [28]: 33%
AUC(0-t) [29]: 304 ng·h/mL
